Values quoted from earlier work in US11450405B2, “Techniques for modeling parathyroid gland functionality and calcimimetic drug activity” (Fresenius Medical Care Holdings, Inc., priority 2018, dated 2022).
Where two headings read alike, the source gives them in different places.

How the values were obtained:
[1] = for effect of hemodialysis on the pharmacokinetics: hemodialysis patients
PTH concentration = conditions: after the administration of cinacalcet
[2] = listed as Cinacalcet hydrochloride

Compound: C[C@@H](NCCCc1cccc(C(F)(F)F)c1)c1cccc2ccccc12 [cinacalcet]
- bio-availability on administration with food ([1]; administration with food): higher
- peak concentrations on administration with food ([1]; administration with food): higher
- total exposure values on administration with food ([1]; administration with food): higher
- time at which plasma concentration peaks ([1]; following oral administration): 2 to 6 h
- effect of hemodialysis on the pharmacokinetics [1]: negligible
- effect of hemodialysis on the pharmacokinetics [1, 2]: not altered
- higher terminal half-life values in hepatic impairment ([1]; moderate to severe hepatic impairment): 40-70%
- absolute bioavailability ([1]; oral administration): 20-25%
- absorption ([1]; oral administration): ~100%
- Bio (bioavailability), reference range ([1]; single 75 mg dose): 20-25%
- VD, reference range ([1]; single 75 mg dose): 1000 to 1250 L
- half-life of distribution t1/2^D, reference value ([1]; single 75 mg dose): 6 h
- terminal half-life, reference range ([1]; single 75 mg dose): 30 to 40 h
- tmax, reference range ([1]; single 75 mg dose): 1 to 6 h
- Cmax, mean reference value ([1]; single 75 mg dose, SD 9.4): 26.6 ng/mL
- mean apparent oral clearance rate CL/F ([1]; single 75 mg dose, SD 148): 314 L/h
- apparent oral clearance rate CL/F (target) ([1]; single oral dose of 75 mg): around 314 L/h
- apparent volume of distribution at steady state VD (target) ([1]; single oral dose of 75 mg): around 1000 L
- distribution half-life tD (target) ([1]; single oral dose of 75 mg): 6 h
- time until the maximum plasma concentration is reached (target) ([1]; single oral dose of 75 mg): around 2.3 hours
- volume of distribution at steady state ([1]; steady state): 1000 L
- time after dosing at which PTH concentration reaches a minimum (PTH concentration): 2 to 3 h
- fraction of the drug in the plasma that is protein bound: Around 95%
- fraction of the drug in the plasma that is protein bound [2]: ~95%
